# From patent US4751295A, “Cephalosporin derivatives” (Bristol-Myers Company, priority 1986, dated 1988)
# Read-outs that look alike come from different tables or passages of the source.
# How the values were obtained:
# [1] = test system: Cephalothinsensitive E. coli (2 strains), Kl. pneumoniae (1 strain) and Pr. mirabilis (2 strains); assay: MIC, two-fold serial agar dilution, group (G-)-Ia; format: cell-based; conditions: 5 strains
# Method: (§1) In the primary evaluation of the compounds of this invention, the Minimum Inhibitory Concentrations (MIC's) of the compounds were determined by the two-fold serial agar dilution method in Mueller-Hinton agar against 32 strains of test organisms in six groups.
# (G+)Ia: Cephalothinsensitive E. coli (2 strains), Kl. pneumoniae (1
# strain) and Pr. mirabilis (2 strains)
# [2] = test system: Cephalothinresistant E. coli (3 strains) and Kl. pneumoniae (2 strains); assay: MIC, two-fold serial agar dilution, group (G-)-Ib; format: cell-based; conditions: Escherichia coli, read-out: Geometric Mean of MIC, (G-)-Ib, Mueller-Hinton agar; 5 strains
# Method: as §1
# (G-)Ib: Cephalothinresistant E. coli (3 strains) and Kl. pneumoniae (2
# [3] = blood levels upon intramuscular administration to mice; format: in vivo; conditions: mouse, im, 20 mg/kg
# Method: (§2) Table 2, below, gives the Protective Dose50 (PD50) in mice for a number of the compounds of Formula I against selected microorganisms. Table 3 gives blood levels of various compounds of Formula I upon intramuscular administration of the test compounds to mice at a dosage of 20 mg/kg.
# [4] = test system: M. morganii (1 strain), Ent. cloacae (2 strains) and Ser. marcescens (2 strains); assay: MIC, two-fold serial agar dilution, group (G-)-II; format: cell-based; conditions: Mueller-Hinton agar; 5 strains; read-out: Geometric Mean of MIC, (G-)-II
# Method: as §1
# (G-)II: M. morganii (1 strain), Ent. cloacae (2 strains) and Ser.
# S. aureus Smith = assay: Protective Dose50 in mice, S. aureus Smith; format: in vivo; conditions: Staphylococcus aureus, read-out: PD50, S. aureus Smith
# Method: as §2
# [5] = test system: Penicillinsensitive S. aureus (5 strains); assay: MIC, two-fold serial agar dilution, group (G+)-Ia; format: cell-based; conditions: Staphylococcus aureus, Mueller-Hinton agar; 5 strains; read-out: Geometric Mean of MIC, (G+)-Ia
# Method: as §1
# (G+)Ia: Penicillinsensitive S. aureus (5 strains)
# [6] = test system: Penicillinresistant S. aureus (5 strains); assay: MIC, two-fold serial agar dilution, group (G+)-Ib; format: cell-based; conditions: Staphylococcus aureus, Mueller-Hinton agar; 5 strains; read-out: Geometric Mean of MIC, (G+)-Ib
# Method: as §1
# (G+)Ib: Penicillinresistant S. aureus (5 strains)
# [7] = test system: Ps. aeruginosa (7 strains); assay: MIC, two-fold serial agar dilution, group (G-)-III; format: cell-based; conditions: Pseudomonas aeruginosa, Mueller-Hinton agar, read-out: Geometric Mean of MIC, (G-)-III
# Method: as §1
# (G-)III: Ps. aeruginosa (7 strains)
# E. coli Juhl = assay: Protective Dose50 in mice, E. coli Juhl; format: in vivo; conditions: Escherichia coli, read-out: PD50, E. coli Juhl
# Method: as §2
# [8] = Mueller-Hinton agar, read-out: Geometric Mean of MIC, (G-)-Ia
smiles,measurement,setting,value
"CON=C(C(=O)NC1C(=O)N2C(C(=O)[O-])=C(C=CC[n+]3ccc(C(=O)O)cc3)CSC12)c1nsc(N)n1 (stereo not shown) [Compound I-1N, 7-[2-(5-Amino-1,2,4-thiadiazol-3-yl)-2-methoxyiminoacetamido]-3-[3-(4-carboxypyridinio)-1-propenyl]-3-cephem-4-carboxylate]",MIC,[1]; [8],0.013 µg/mL
same,MIC,[2],0.066 µg/mL
same,AUC,[3],18000 ng·h/mL
same,Cmax,[3],24000 ng/mL
same,half-life,[3],19 min
same,MIC,[4],0.3 µg/mL
same,ED50,S. aureus Smith,2 mg/kg
same,MIC,[5],1.2 µg/mL
same,MIC,[6],1.6 µg/mL
same,MIC,[7],5.7 µg/mL
"CO/N=C(\C(=O)NC1C(=O)N2C(C(=O)[O-])=C(/C=C/C[n+]3cccc4c3CCC4)CSC12)c1nsc(N)n1 (stereo not shown) [Compound I-1O, 7-[2-(5-Amino-1,2,4-thiadiazol-3-yl)-2-(Z)-methoxyiminoacetamido]-3-[3-(2,3-cyclopentenopyridinio)-1-propenyl]-3-cephem-4-carboxylate]",MIC,[1]; [8],0.029 µg/mL
same,MIC,[2],0.033 µg/mL
same,ED50,E. coli Juhl,0.17 mg/kg
same,AUC,[3],17000 ng·h/mL
same,Cmax,[3],28000 ng/mL
same,half-life,[3],32 min
same,MIC,[4],0.11 µg/mL
same,ED50,S. aureus Smith,0.26 mg/kg
same,MIC,[5],0.17 µg/mL
same,MIC,[6],0.35 µg/mL
same,MIC,[7],14 µg/mL
"CCO/N=C(\C(=O)NC1C(=O)N2C(C(=O)[O-])=C(C=CC[n+]3ccc(C(=O)O)cc3)CSC12)c1nsc(N)n1 (stereo not shown) [Compound I-2N, 7-[2-(5-Amino-1,2,4-thiadiazol-3-yl)-2-(Z)-ethoxyiminoacetamido]-3-[3-(4-carboxypyridinio)-1-propenyl]-3-cephem-4-carboxylate]",AUC,[3],12000 ng·h/mL
same,Cmax,[3],22000 ng/mL
same,half-life,[3],20 min
same,ED50,S. aureus Smith,5 mg/kg
"C=CCON=C(C(=O)NC1C(=O)N2C(C(=O)[O-])=C(/C=C/C[n+]3ccc(C(N)=O)cc3)CSC12)c1nsc(N)n1 (stereo not shown) [Compound I-3H, 7-[2-(Amino-1,2,4-thiadiazol-3-yl)-2-(propen-3-yloxyimino)acetamido]-3-[3-(4-carbamoylpyridinio)-1-propenyl]-3-cephem-4-carboxylate]",MIC,[1]; [8],0.057 µg/mL
same,MIC,[2],0.1 µg/mL
same,AUC,[3],25000 ng·h/mL
same,Cmax,[3],19000 ng/mL
same,half-life,[3],47 min
same,MIC,[4],0.52 µg/mL
same,MIC,[5],0.23 µg/mL
same,MIC,[6],0.4 µg/mL
same,MIC,[7],1.9 µg/mL
"C#CCON=C(C(=O)NC1C(=O)N2C(C(=O)[O-])=C(/C=C/C[n+]3ccc(C(N)=O)cc3)CSC12)c1nsc(N)n1 (stereo not shown) [Compound I-4H, 7-[2-(5-Amino-1,2,4-thiadiazol-3-yl)-2-propargyloxyiminoacetamido]-3-[3-(4-carbamoylpyridinio)-1-propenyl]-3-cephem-4-carboxylate]",MIC,[1]; [8],0.066 µg/mL
same,MIC,[2],0.11 µg/mL
same,AUC,[3],16000 ng·h/mL
same,Cmax,[3],27000 ng/mL
same,half-life,[3],22 min
same,MIC,[4],0.6 µg/mL
same,MIC,[5],0.26 µg/mL
same,MIC,[6],0.46 µg/mL
same,MIC,[7],2.6 µg/mL
"NC(=O)c1cc[n+](C/C=C/C2=C(C(=O)[O-])N3C(=O)C(NC(=O)C(=NOC4CCCC4)c4nsc(N)n4)C3SC2)cc1 (stereo not shown) [Compound I-5H, 7-[2-(5-Amino-1,2,4-thiadiazol-3-yl)-2-cyclopentyloxyiminoacetamido]-3-[3-(4-carbamoylpyridinio)-1-propenyl]-3-cephem-4-carboxylate]",MIC,[1]; [8],0.2 µg/mL
same,MIC,[2],0.46 µg/mL
same,AUC,[3],18000 ng·h/mL
same,Cmax,[3],22000 ng/mL
same,half-life,[3],32 min
same,MIC,[4],2.1 µg/mL
same,MIC,[5],0.13 µg/mL
same,MIC,[6],0.4 µg/mL
same,MIC,[7],4.2 µg/mL
"CON=C(C(=O)NC1C(=O)N2C(C(=O)[O-])=C(C=CC[n+]3ccccc3)CSC12)c1nsc(N)n1 (stereo not shown) [I-IB E/Z = 1/4, 7-[2-(5-Amino-1,2,4-thiadiazol-3-yl)-2-methoxyiminoacetamido]-3-[3-pyridinio-1-propen-1-yl]-3-cephem-4-carboxylate]",MIC,"[1]; read-out: Geometric Mean of MIC, (G-)-Ia, Mueller-Hinton agar",0.05 µg/mL
same,MIC,[2],0.11 µg/mL
same,MIC,[4],0.35 µg/mL
same,MIC,[5],0.35 µg/mL
same,MIC,[6],0.8 µg/mL
same,MIC,[7],3.5 µg/mL
